Reference: patent US20240384350A1, “METHODS OF TREATING CANCER WITH KINASE INHIBITORS” (BOARD OF REGENTS, THE UNIVERSITY OF TEXAS SYSTEM, priority 2021, published 2024)

Experiments:
Assay in all cases: Ba/F3 drug screening, Cell Titer Glo, IC50 Mut/WT
Format in all cases: cell-based
[1] = target: T1, EGFR L833F (Homo sapiens, UniProt P00533, L833F); settings: Classical-Like, 72 hours
T1 construct: expressed in transfected cells; host or cells: Ba/F3 cells, retroviral pBabe-Puro vector

[2] = target: T2, EGFR L833V (Homo sapiens, UniProt P00533, L833V); settings: Classical-Like, 72 hours
T2 construct: expressed in transfected cells; host or cells: Ba/F3 cells, retroviral pBabe-Puro vector

[3] = target: T3, EGFR L858R/V834L (Homo sapiens, UniProt P00533, L858R/V834L); settings: Classical-Like, 72 hours
T3 construct: expressed in transfected cells; host or cells: Ba/F3 cells, retroviral pBabe-Puro vector
Procedure: (§1) Data represent the ratio of the IC50 value for a given TKI for cells with a classical-like EGFR mutation to the IC50 value for cells with wildtype EGFR.
(§2) Ba/F3 cell generation, drug screening, and IC50 approximations. Ba/F3 cells were obtained as a gift from Dr. Gordon Mills (MD Anderson Cancer Center), and maintained in RPMI (Sigma) containing 10% FBS, 1% penicillin/streptomycin, and 10 ng/ml recombinant mIL-3 (R&D Biosystems). To establish stable Ba/F3 cell lines, Ba/F3 cells were transduced with retroviruses containing mutant EGFR plasmids for 12-24 hours.
(§3) After 48-72 hours of transduction, 2 μg/ml puromycin (Invitrogen) was added to Ba/F3 cell lines in complete RPMI. To select for EGFR positive cell lines, cells were stained with PE-EGFR (Biolegend) and sorted by FACS. After sorting, EGFR positive cells were maintained in RPMI containing 10% FBS, 1% penicillin/streptomycin, and 1 ng/ml EGF to support cell viability. […] Shortly, cells were plated in 384-well plates (Greiner Bio-One) at 2000-3000 cells per well in technical triplicate. Seven different concentrations of TKIs or DMSO vehicle were added to reach a final volume of 40 μL per well. After 72 hours, 11 μL of Cell Titer Glo (Promega) was added to each well. Plates were incubated for a minimum of 10 minutes, and bioluminescence was determined using a FLUOstar OPTIMA plate reader (BMG LABTECH). Raw bioluminescence values were normalized to DMSO control treated cells, and values were plotted in GraphPad Prism. […] Drug screens were performed in technical triplicate on each plate and either duplicate or triplicate biological replicates.

[4] = target: T4, EGFR Ex19del (Homo sapiens, UniProt P00533, DEL746-750); settings: Classical-Like, 72 hours
T4 construct: expressed in transfected cells; host or cells: Ba/F3 cells, retroviral pBabe-Puro vector
Procedure: as §1, §2, §3

[5] = target: T5, EGFR L858R (Homo sapiens, UniProt P00533, L858R); settings: Classical-Like, 72 hours
T5 construct: expressed in transfected cells; host or cells: Ba/F3 cells, retroviral pBabe-Puro vector

[6] = target: T6, EGFR L858R S784F (Homo sapiens, UniProt P00533, L858R/S784F); settings: Classical-Like, 72 hours
T6 construct: expressed in transfected cells; host or cells: Ba/F3 cells, retroviral pBabe-Puro vector (vector made by GeneScript from EGFR L858R)
Procedure: as §1, §2, §3

[7] = target: T7, EGFR L861R (Homo sapiens, UniProt P00533, L861R); settings: Classical-Like, 72 hours
T7 construct: expressed in transfected cells; host or cells: Ba/F3 cells, retroviral pBabe-Puro vector (vector made by GeneScript from EGFR WT)

[8] = target: T8, EGFR L747_K754del insATSPE (Homo sapiens, UniProt P00533, DEL747-749/K754E); settings: T790M-like-3S, 72 hours
T8 construct: expressed in transfected cells; host or cells: Ba/F3 cells, retroviral pBabe-Puro vector
Procedure: (§4) Data represent the ratio of the IC50 value for a given TKI for cells with a T790M-like-3S EGFR mutation to the IC50 value for cells with wildtype EGFR.
as §2
(§5) After 48-72 hours of transduction, 2 μg/ml puromycin (Invitrogen) was added to Ba/F3 cell lines in complete RPMI. To select for EGFR positive cell lines, cells were stained with PE-EGFR (Biolegend) and sorted by FACS. After sorting, EGFR positive cells were maintained in RPMI containing 10% FBS, 1% penicillin/streptomycin, and 1 ng/ml EGF to support cell viability. Drug screening was performed as previously described^41,42. Shortly, cells were plated in 384-well plates (Greiner Bio-One) at 2000-3000 cells per well in technical triplicate. Seven different concentrations of TKIs or DMSO vehicle were added to reach a final volume of 40 μL per well. After 72 hours, 11 μL of Cell Titer Glo (Promega) was added to each well. Plates were incubated for a minimum of 10 minutes, and bioluminescence was determined using a FLUOstar OPTIMA plate reader (BMG LABTECH). Raw bioluminescence values were normalized to DMSO control treated cells, and values were plotted in GraphPad Prism. […] Drug screens were performed in technical triplicate on each plate and either duplicate or triplicate biological replicates.

[9] = target: T9, EGFR T790M (Homo sapiens, UniProt P00533, T790M); settings: T790M-like-3S, 72 hours
T9 construct: expressed in transfected cells; host or cells: Ba/F3
Procedure: as §4, §2, §5

[10] = target: T10, EGFR G719S T790M (Homo sapiens, UniProt P00533, G719S/T790M); settings: T790M-like-3S, 72 hours
T10 construct: expressed in transfected cells; host or cells: Ba/F3

[11] = target: T11, EGFR L858R T790M L718V (Homo sapiens, UniProt P00533, L718V/L858R/T790M); settings: T790M-like-3R, 72 hours
T11 construct: expressed in transfected cells; host or cells: Ba/F3

[12] = target: T12, EGFR Ex19del/T790M/L792H (Homo sapiens, UniProt P00533, DEL746-750/L792H/T790M); settings: T790M-like-3R, 72 hours
T12 construct: expressed in transfected cells; host or cells: Ba/F3
Procedure: (§6) Data represent the ratio of the IC50 value for a given TKI for cells with a T790M-like-3R EGFR mutation to the IC50 value for cells with wildtype EGFR.
as §2
(§7) After 48-72 hours of transduction, 2 μg/ml puromycin (Invitrogen) was added to Ba/F3 cell lines in complete RPMI. To select for EGFR positive cell lines, cells were stained with PE-EGFR (Biolegend) and sorted by FACS. After sorting, EGFR positive cells were maintained in RPMI containing 10% FBS, 1% penicillin/streptomycin, and 1 ng/ml EGF to support cell viability. […] Shortly, cells were plated in 384-well plates (Greiner Bio-One) at 2000-3000 cells per well in technical triplicate. Seven different concentrations of TKIs or DMSO vehicle were added to reach a final volume of 40 μL per well. After 72 hours, 11 μL of Cell Titer Glo (Promega) was added to each well. Plates were incubated for a minimum of 10 minutes, and bioluminescence was determined using a FLUOstar OPTIMA plate reader (BMG LABTECH). Raw bioluminescence values were normalized to DMSO control treated cells, and values were plotted in GraphPad Prism. […] Drug screens were performed in technical triplicate on each plate and either duplicate or triplicate biological replicates. […] Statistical differences between groups were determined by ANOVA as described in the figure legends.

[13] = target: T13, EGFR Ex19del T790M C797S (Homo sapiens, UniProt P00533, C797S/DEL746-750/T790M); settings: T790M-like-3R, 72 hours
T13 construct: expressed in transfected cells; host or cells: Ba/F3
Procedure: as §6, §2, §7

[14] = target: T14, EGFR E709_T710del insD (Homo sapiens, UniProt P00533, DEL709-709/T710D); settings: PACC; E709_T710del insD; Ba/F3; 72 hours
T14 construct: expressed in transfected cells; host or cells: Ba/F3

[15] = target: T15, EGFR G719S (Homo sapiens, UniProt P00533, G719S); settings: PACC; G719S; Ba/F3; 72 hours
T15 construct: expressed in transfected cells; host or cells: Ba/F3
Procedure: (§8) Data represent the ratio of the IC50 value for a given TKI for cells with a PACC EGFR mutation to the IC50 value for cells with wildtype EGFR.
as §2, §5

[16] = target: T16, EGFR G719A (Homo sapiens, UniProt P00533, G719A); settings: PACC; G719A; Ba/F3; 72 hours
T16 construct: expressed in transfected cells; host or cells: Ba/F3
Procedure: as §8, §2, §5

[17] = target: T17, EGFR K757R (Homo sapiens, UniProt P00533, K757R); settings: PACC; K757R; Ba/F3; 72 hours
T17 construct: expressed in transfected cells; host or cells: Ba/F3

[18] = target: T18, EGFR S768I V774M (Homo sapiens, UniProt P00533, S768I/V774M); settings: PACC; S768I V774M; Ba/F3; 72 hours
T18 construct: host or cells: Ba/F3

[19] = target: T19, EGFR R776H (Homo sapiens, UniProt P00533, R776H); settings: PACC; R776H; Ba/F3; 72 hours
T19 construct: host or cells: Ba/F3

[20] = target: T20, EGFR L858R/L792H (Homo sapiens, UniProt P00533, L792H/L858R); settings: PACC; L858R/L792H; Ba/F3; 72 hours
T20 construct: expressed in transfected cells; host or cells: Ba/F3
Procedure: as §8, §2, §5

[21] = target: T21, EGFR Ex19del G796S (Homo sapiens, UniProt P00533, DEL746-750/G796S); settings: PACC; Ex19del G796S; Ba/F3; 72 hours
T21 construct: expressed in transfected cells; host or cells: Ba/F3

[22] = target: T22, EGFR L858R/C797S (Homo sapiens, UniProt P00533, C797S/L858R); settings: PACC; L858R/C797S; Ba/F3; 72 hours
T22 construct: expressed in transfected cells; host or cells: Ba/F3
Procedure: as §8, §2, §5

[23] = target: T23, EGFR L858R G724S (Homo sapiens, UniProt P00533, G724S/L858R); settings: PACC; L858R G724S; Ba/F3; 72 hours
T23 construct: expressed in transfected cells; host or cells: Ba/F3 (retroviral transduction, pBabe-Puro based vectors)

SMILES: CNC(=O)CN1CCC(Oc2cc3c(Nc4cccc(Cl)c4F)ncnc3cc2OC)CC1 [Sapatinib]
- ratio of IC50 for cells with mutant EGFR to IC50 for cells with wildtype EGFR (Mut/WT) [1]: 0.006619
- ratio of IC50 for cells with mutant EGFR to IC50 for cells with wildtype EGFR (Mut/WT) [2]: 0.008594
- ratio of IC50 for cells with mutant EGFR to IC50 for cells with wildtype EGFR (Mut/WT) [3]: 0.001889
- ratio of IC50 for cells with mutant EGFR to IC50 for cells with wildtype EGFR (Mut/WT) [4]: 0.0005535
- ratio of IC50 for cells with mutant EGFR to IC50 for cells with wildtype EGFR (Mut/WT) [5]: 0.0006817
- ratio of IC50 for cells with mutant EGFR to IC50 for cells with wildtype EGFR (Mut/WT) [6]: 0.06664
- ratio of IC50 for cells with mutant EGFR to IC50 for cells with wildtype EGFR (Mut/WT) [7]: 0.002811
- ratio of IC50 for cells with mutant EGFR to IC50 for cells with wildtype EGFR (Mut/WT) [8]: 7.978
- ratio of IC50 for cells with mutant EGFR to IC50 for cells with wildtype EGFR (Mut/WT) [9]: 70.5
- ratio of IC50 for cells with mutant EGFR to IC50 for cells with wildtype EGFR (Mut/WT) [10]: 54.78
- ratio of IC50 for cells with mutant EGFR to IC50 for cells with wildtype EGFR (Mut/WT) [11]: 41.48
- ratio of IC50 for cells with mutant EGFR to IC50 for cells with wildtype EGFR (Mut/WT) [12]: 451.7
- ratio of IC50 for cells with mutant EGFR to IC50 for cells with wildtype EGFR (Mut/WT) [13]: 17.13
- ratio of IC50 for cells with mutant EGFR to IC50 for cells with wildtype EGFR (Mut/WT) [14]: 1.754
- ratio of IC50 for cells with mutant EGFR to IC50 for cells with wildtype EGFR (Mut/WT) [15]: 0.1998
- ratio of IC50 for cells with mutant EGFR to IC50 for cells with wildtype EGFR (Mut/WT) [16]: 0.01264
- ratio of IC50 for cells with mutant EGFR to IC50 for cells with wildtype EGFR (Mut/WT) [17]: 0.3144
- ratio of IC50 for cells with mutant EGFR to IC50 for cells with wildtype EGFR (Mut/WT) [18]: 0.2648
- ratio of IC50 for cells with mutant EGFR to IC50 for cells with wildtype EGFR (Mut/WT) [19]: 0.001939
- ratio of IC50 for cells with mutant EGFR to IC50 for cells with wildtype EGFR (Mut/WT) [20]: 0.01237
- ratio of IC50 for cells with mutant EGFR to IC50 for cells with wildtype EGFR (Mut/WT) [21]: 3.423
- ratio of IC50 for cells with mutant EGFR to IC50 for cells with wildtype EGFR (Mut/WT) [22]: 0.001101
- ratio of IC50 for cells with mutant EGFR to IC50 for cells with wildtype EGFR (Mut/WT) [23]: 0.0004959
